This passage reports melting point results from patent publication US6555538B2, “5-arylsulfonyl-imidazo[1′,2′:1,6]pyrido[2,3-b]pyrazine-6-amines and related compounds” (Pfizer Inc, priority 1999, dated 2003).

With `Cc1ccc(S(=O)(=O)c2c(N)c3nncn3c3nccnc23)cc1` [Example 2, 5-[(4-methylphenyl)sulfonyl]-[1,2,4]triazolo[4′,3′:1,6]pyrido[2,3-b]pyrazin-6-amine], the melting point is more than 300 °C.
Compound `Nc1c(S(=O)(=O)c2ccc(O)cc2)c2nccnc2n2ccnc12` [Example 8, 5-[(4-Hydroxyphenyl)sulfonyl]-imidazo[1′,2′:1,6]pyrido[2,3-b]pyrazin-6-amine] displayed a melting point of more than 300 °C.
The compound `CC(C)c1ccc(S(=O)(=O)c2c(N)c3nccn3c3nccnc23)cc1` [Example 4, 5-[(4-isopropylphenyl)sulfonyl]-imidazo[1′,2′:1,6]pyrido[2,3-b]pyrazin-6-amine] came in with a melting point of 241 to 244 °C.
The same measure for `CCCc1ccc(S(=O)(=O)c2c(N)c3nccn3c3nccnc23)cc1` [Example 5, 5-[(4-propylphenyl)sulfonyl]-imidazo[1′,2′:1,6]pyrido[2,3-b]pyrazin-6-amine]: 231 to 232 °C; for `CCc1ccc(S(=O)(=O)c2c(N)c3nccn3c3nccnc23)cc1` [Example 3, 5-[(4-ethylphenyl)sulfonyl]-imidazo[1′,2′:1,6]pyrido[2,3-b]pyrazin-6-amine]: 267.5 to 268.5 °C; for `COc1ccc(S(=O)(=O)c2c(N)c3nccn3c3nccnc23)cc1` [Example 6, 5-[(4-methoxyphenyl)sulfonyl]-imidazo[1′,2′:1,6]pyrido[2,3-b]pyrazin-6-amine]: 269 to 270 °C.
For `Cc1ccc(S(=O)(=O)c2c(N)c3nccn3c3nccnc23)cc1` [Example 1, 5-[(4-Methylphenyl)sulfonyl]-imidazo[1′,2′:1,6]pyrido[2,3-b]pyrazin-6-amine], the melting point was 294 to 295 °C.

One may read the melting point as the temperature, or range, at which the solid turns liquid.
